Assay results: ChEMBL document CHEMBL2062363, “Ligand-based design, in silico ADME-Tox filtering, synthesis and biological evaluation to discover new soluble 1,4-DHP-based CFTR activators” (Eur J Med Chem, 2012)

What was measured:
[1] = Potentiation of forskolin-induced CFTR deltaF508 mutant expressed in FRT cells co-expressing halide-sensitive YFP-H148Q/I152L by fluorescence quenching assay; assay type: cell-based, Homo sapiens
[2] = target: L-type voltage-dependent Ca2+ channel (Homo sapiens, UniProt O60840+Q01668+Q13698+Q13936); assay: Inhibition of L-type voltage-dependent Ca2+ channel at 1 uM
[3] = Induction of nitric oxide release in phosphate buffer at pH 7.4 at 10^-4 M after 1 hr by Griess reaction presence of L-cysteine; assay type: physicochemical; details: pH 7.4, 1 h, 100 µM

## C=CCO/C(O)=C1\C(C)=NC(SCC)=C(C#N)C1c1ccc(Cl)cc1 (centres undefined)
[1]
  pEC50 for potentiation of CFTR deltaF508 (activation potency): 5.58
[2]
  inhibition at 1 µM: 29.7%

## CCOC(=O)C1=C(C)NC(C)=C(C(=O)OCC)C1c1cccc(Oc2ccccc2)c1
[1]
  pEC50 for potentiation of CFTR deltaF508 (activation potency): 6.59
[2]
  inhibition at 1 µM: 43.2%

## C=CCOC(=O)C1=C(C)NC(C)=C(C(=O)OCC=C)C1c1ccc(OC)cc1
[1]
  pEC50 for potentiation of CFTR deltaF508 (activation potency): 6.3
[2]
  inhibition at 1 µM: 37.2%

## C=CCOC(=O)C1=C(C)NC(C)=C(C(=O)OCC=C)C1c1ccc(I)cc1
[1]
  pEC50 for potentiation of CFTR deltaF508 (activation potency): 5.77
[2]
  inhibition at 1 µM: 37.5%

## COC(=O)C1=C(C)NC(C)=C(C(=O)OC)C1c1ccc(OCc2ccccc2)cc1
[1]
  pEC50 for potentiation of CFTR deltaF508 (activation potency): 5.46
[2]
  inhibition at 1 µM: 22.5%

## COC(=O)C1=C(C)NC(C)=C(C(=O)OCCCO[N+](=O)[O-])C1c1cccc([N+](=O)[O-])c1 (centres undefined)
[1]
  pEC50 for potentiation of CFTR deltaF508 (activation potency): 5.88
[3]
  Activity: < 0.5%

## CC1=C(C(=O)OCCCO[N+](=O)[O-])C(c2cccc([N+](=O)[O-])c2)C([N+](=O)[O-])=C(C)N1 (racemic)
[1]
  pEC50 for potentiation of CFTR deltaF508 (activation potency): 5.07
[3]
  Activity: < 0.5%
